Results taken from PubChem BioAssay AID2060888 (Molecular Pharmacology Branch, DTP, NCI, 2025).

System: 695427-040-R-J1-PDC complex spheroid viability
Assay: Anticancer human tumor 695427-040-R-J1-PDC patient-derived colon adenocarcinoma cell line growth inhibition [RAS]
Settings: for IC50: curve of first compound; for viability, T/C: stronger effect = lower value
How it was run: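 Agents were tested in combination matrices in half-log decrements from a top concentration at or near clinical Cmax (10 microM if undetermined). Targets were multi-cell spheroids of tumour lines plus HUVEC and MSC stromal cells.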
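Also: viability read after seven days of drug exposure.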
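For viability, T/C in this document: 100% = DMSO vehicle control viability.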

Which results are given for `C=CC(=O)Nc1cc(Nc2nccc(-c3cn(C)c4ccccc34)n2)c(OC)cc1N(C)CCN(C)C` + CCn1c(-c2cc(N3CCN(C)CC3)cnc2C(C)OC)c2c3cc(ccc31)-c1csc(n1)CC(NC(=O)C1CC1C)C(=O)N1CCCC(N1)C(=O)OCC(C)(C)C2?
IC50 (second compound 0.000949 µM): 523 nM; IC50 (second compound 0.003 µM): 363 nM; IC50 (second compound 0.00949 µM): 147 nM; IC50 (second compound 0.03 µM): 44.3 nM; IC50 (second compound 0.0949 µM): < 3.16 nM; IC50 (second compound 0.3 µM): < 3.16 nM; viability, T/C (second compound 0.000949 µM, first compound 0.00316 µM): 104%; viability, T/C (second compound 0.000949 µM, first compound 0.01 µM): 91.1%; viability, T/C (second compound 0.000949 µM, first compound 0.0316 µM): 75.1%; viability, T/C (second compound 0.000949 µM, first compound 0.1 µM): 82.8%; viability, T/C (second compound 0.000949 µM, first compound 0.316 µM): 58.1%; viability, T/C (second compound 0.000949 µM, first compound 1 µM): 37.1%; viability, T/C (second compound 0.003 µM, first compound 0.00316 µM): 103%; viability, T/C (second compound 0.003 µM, first compound 0.01 µM): 88.7%; viability, T/C (second compound 0.003 µM, first compound 0.0316 µM): 68%; viability, T/C (second compound 0.003 µM, first compound 0.1 µM): 74%; viability, T/C (second compound 0.003 µM, first compound 0.316 µM): 52.3%; viability, T/C (second compound 0.003 µM, first compound 1 µM): 35.9%; viability, T/C (second compound 0.00949 µM, first compound 0.00316 µM): 91.7%; viability, T/C (second compound 0.00949 µM, first compound 0.01 µM): 78.3%; viability, T/C (second compound 0.00949 µM, first compound 0.0316 µM): 68.9%; viability, T/C (second compound 0.00949 µM, first compound 0.1 µM): 54.4%; viability, T/C (second compound 0.00949 µM, first compound 0.316 µM): 41.5%; viability, T/C (second compound 0.00949 µM, first compound 1 µM): 24.6%; viability, T/C (second compound 0.03 µM, first compound 0.00316 µM): 58.9%; viability, T/C (second compound 0.03 µM, first compound 0.01 µM): 60.1%; viability, T/C (second compound 0.03 µM, first compound 0.0316 µM): 51.3%; viability, T/C (second compound 0.03 µM, first compound 0.1 µM): 42.8%; viability, T/C (second compound 0.03 µM, first compound 0.316 µM): 36.9%; viability, T/C (second compound 0.03 µM, first compound 1 µM): 21.2%; viability, T/C (second compound 0.0949 µM, first compound 0.00316 µM): 46.6%; viability, T/C (second compound 0.0949 µM, first compound 0.01 µM): 45.7%; viability, T/C (second compound 0.0949 µM, first compound 0.0316 µM): 34.2%; viability, T/C (second compound 0.0949 µM, first compound 0.1 µM): 36.9%; viability, T/C (second compound 0.0949 µM, first compound 0.316 µM): 24.4%; viability, T/C (second compound 0.0949 µM, first compound 1 µM): 17.3%; viability, T/C (second compound 0.3 µM, first compound 0.00316 µM): 33.3%; viability, T/C (second compound 0.3 µM, first compound 0.01 µM): 34.9%; viability, T/C (second compound 0.3 µM, first compound 0.0316 µM): 29.7%; viability, T/C (second compound 0.3 µM, first compound 0.1 µM): 30.1%; viability, T/C (second compound 0.3 µM, first compound 0.316 µM): 26.9%; viability, T/C (second compound 0.3 µM, first compound 1 µM): 16.1%
